Assay results from US20230203095A1, “BIOLOGICAL PEPTIDE FOR TREATING LUNG DISEASES AND APPLICATION THEREOF” (SHANGHAI INSTITUTE OF PHARMACEUTICAL INDUSTRY CO., LTD., priority 2019, published 2023).
Square brackets hold non-standard residues; d marks the D form. Peptide text beside a SMILES is read from it.

Tests used:
[1] = system: ConA-stimulated mouse splenocytes; assay: Secretion of IL-4 from mouse splenocytes stimulated by ConA (ELISA); type: cell-based, BALB/C mice; details: for IL-4 levels of polypeptides: ConA 5 µg/mL, 24 h
Procedure: (§1) Three BALB/C mice were sacrificed by cervical dislocation after anesthesia. Then mice were immersed in 75% ethanol for 5 minutes. After dissection and spleen extraction, spleen lymphocytes were prepared. […] Different concentrations of test substances were added to each well, and duplicate wells were set for each concentration, and the final concentration of ConA was 5 µg/mL. The plate was incubated in a 37° C. 5% CO2 incubator for 24 h, the drug-containing cell suspension was aspirated from each well, then centrifuged at 200 g for 15 min at 4° C. The supernatant was taken, and mouse IL-4 Elisa kit was used to detect IL- 4 content.
as §1, with “each concentration was” for “duplicate wells were”, “up as triple wells,” for “for each concentration,”, “kit (mouse IL-4 Elisa kit)” for “kit”

[2] = Plasma drug concentrations and pharmacokinetics after a single subcutaneous injection of SP peptide or SIPI-D00 peptide in SD rats; type: in vivo
Procedure: Route: Single back subcutaneous injection;
Dosage of the drug: SP peptide and SIPI-D00 peptide were prepared into 3.33 mg/mL solution with normal saline, the dosage of SP peptide by back subcutaneous injection was 10 mg/kg body weight, and the dosage of SIPI-D00 peptide by back subcutaneous injection was 5 mg/kg body weight. […]

With `C[C@H](O)[C@@H](NC(=O)[C@@H](Cc1ccc(O)cc1)NC(=O)[C@H](NC(=O)[C@@H](CO)NC(=O)CN)[C@H](C)O)C(=O)N[C@H](CCC(N)=O)C(=O)NCC(=O)O` [SIPI-D00, GSTYTQG] (H-G[dS][dT][dY][dT][dQ]G-OH) the “secretion of IL-4 by ConA-stimulated mouse spleen lymphocytes (in words)” value [1] was “significantly inhibit”, the “Inhibitory rate of polypeptide on IL-4 secretion” value (from here on “Inhibitory rate of polypeptide”) ([1]; peptide concentration 1 µg/mL) was 34.96% and the “IL-4 levels of polypeptides” value ([1]; peptide concentration 1 µg/mL) was 14.05 ± 2.19 pg/mL. For the same molecule, the “Inhibitory rate of polypeptide” value ([1]; peptide concentration 3 µg/mL) was 59.68%, the “IL-4 levels of polypeptides” value ([1]; peptide concentration 3 µg/mL) was 8.71 ± 0.95 pg/mL and the “Inhibitory rate of polypeptide” value ([1]; peptide concentration 10 µg/mL) was 71.00%. The “IL-4 levels of polypeptides” value ([1]; peptide concentration 10 µg/mL) was 6.26 ± 0.36 pg/mL, the “Inhibitory rate of polypeptide” value ([1]; peptide concentration 30 µg/mL) was 72.82% and the “IL-4 levels of polypeptides” value ([1]; peptide concentration 30 µg/mL) was 5.87 ± 0.49 pg/mL. It also gave a Plasma concentration ([2]; SIPI-D00 5 mg/kg s.c., SD rats, time 0 h, parallels 1-4) of 0 ng/mL, a Plasma concentration ([2]; SIPI-D00 5 mg/kg s.c., SD rats, time 0.1 h, parallels 1-4, 5 mg/kg) of 5167 ng/mL and a Plasma concentration ([2]; SIPI-D00 5 mg/kg s.c., SD rats, time 0.333 h, parallels 1-4, 5 mg/kg) of 5836 ng/mL. The Plasma concentration ([2]; SIPI-D00 5 mg/kg s.c., SD rats, time 0.667 h, parallels 1-4, 5 mg/kg) was 5242 ng/mL, the Plasma concentration ([2]; SIPI-D00 5 mg/kg s.c., SD rats, time 2 h, parallels 1-4, 5 mg/kg) was 1185 ng/mL and the Fa ([2]; SIPI-D00 5 mg/kg single subcutaneous injection, SD rats, Mean±SD) was 96.3±13.3%. For the same molecule, the level at 0.1 h ([2]; male, SD, rat, plasma, sc, 5 mg/kg, SIPI-D00 5 mg/kg s.c., SD rats, time 0.1 h, parallels 1-4, read-out: Plasma concentration) was 3580 ng/mL, the level at 0.167 h ([2]; male, SD, rat, plasma, sc, 5 mg/kg, SIPI-D00 5 mg/kg s.c., SD rats, time 0.167 h, parallels 1-4, read-out: Plasma concentration) was 4720 ng/mL and the level at 0.333 h ([2]; male, SD, rat, plasma, sc, 5 mg/kg, SIPI-D00 5 mg/kg s.c., SD rats, time 0.333 h, parallels 1-4, read-out: Plasma concentration) was 5890 ng/mL. For the same molecule, the level at 0.667 h ([2]; male, SD, rat, plasma, sc, 5 mg/kg, SIPI-D00 5 mg/kg s.c., SD rats, time 0.667 h, parallels 1-4, read-out: Plasma concentration) was 5260 ng/mL, the level at 1 h ([2]; male, SD, rat, plasma, sc, 5 mg/kg, SIPI-D00 5 mg/kg s.c., SD rats, time 1 h, parallels 1-4, read-out: Plasma concentration) was 3940 ng/mL and the level at 2 h ([2]; male, SD, rat, plasma, sc, 5 mg/kg, SIPI-D00 5 mg/kg s.c., SD rats, time 2 h, parallels 1-4, read-out: Plasma concentration) was 1160 ng/mL. For the same molecule, the level at 3 h ([2]; male, SD, rat, plasma, sc, 5 mg/kg, SIPI-D00 5 mg/kg s.c., SD rats, time 3 h, parallels 1-4, read-out: Plasma concentration) was 291 ng/mL, the level at 4 h ([2]; male, SD, rat, plasma, sc, 5 mg/kg, SIPI-D00 5 mg/kg s.c., SD rats, time 4 h, parallels 1-4, read-out: Plasma concentration) was 53.5 ng/mL and the level at 6 h ([2]; male, SD, rat, plasma, sc, 5 mg/kg, SIPI-D00 5 mg/kg s.c., SD rats, time 6 h, parallels 1-4, read-out: Plasma concentration) was 3.51 ng/mL. For the same molecule, the “AUC compared with SP” value ([2]; rat, in vivo, sc) was “significantly improved compared with SP”, the AUC(0-t) ([2]; rat, in vivo, sc, 5 mg/kg) was 8820 ± 1320 ng·h/mL and the Cmax ([2]; rat, in vivo, sc, 5 mg/kg) was 5910 ± 447 ng/mL. It also gave an MRT last ([2]; rat, in vivo, sc, 5 mg/kg) of 57.8 ± 1.14 min, a Tmax ([2]; rat, in vivo, sc, 5 mg/kg) of 12.5 ± 4.98 min and a half-life ([2]; rat, in vivo, sc, 5 mg/kg) of 90 min.
